Experimental data taken from patent US12037345B2, “Heterobicyclic compounds for inhibiting the activity of SHP2” (TAIHO PHARMACEUTICAL CO., LTD., priority 2018, dated 2024).
Structures can show the parent of a compound that is named as a salt.

target: SHP2 (Homo sapiens (Human), UniProt Q06124); experiment: SHP2 Biochemical Assay (DiFMUP conversion, pIRS1-activated); details: Table 19; head prints unit as "-M"
Method: SHP2 activity was monitored by measuring the conversion of the surrogate substrate 6,8-difluoromethylumbelliferyl phosphate (DiFMUP) to the fluorescent product, 6,8-difluoromethylumbelliferone (DiFMU).
SHP2 was pre-incubated with test compounds and the activating peptide pIRS1 (H2N-LN(pY)IDLDLV-(PEG)8-LST(pY)ASINFQK-amide) for 30 min, prior to addition of the 6,8-difluoromethylumbelliferyl phosphate (DiFMUP), (Thermo Fisher D6567). Final assay concentrations were 10 pM SHP2, […] pIRS1 peptide, 50 μM DiFMUP, 25 mM Bis-Tris propane, pH 7.0, 150 mM NaCl, 0.05% (v/v) Tween-20, 0.5 mM TCEP and 5% (v/v) DMSO. Rates of reaction were then measured over 30 min by monitoring fluorescence on a BMG Pherastar reader at excitation 360 nm/emission 450 nm. IC50 values were calculated in singlicate from the normalized dose-response plots using four parameter logistic curve fit. The Experiment for each compound was carried out in one time or multiple times, and the IC50 values were shown as a single value (for a compound measured in a single experiment) or an average value (for a compound measured in multiple experiments).

Row | IC50 [nM] | SMILES
1 | 230 | C[C@@H]1CN(c2nc3[nH]cc(-c4ccc5nn(C)cc5c4Cl)c3c(=O)n2C)CCN1 [Example 18, (R)-5-(4-chloro-2-methyl-2H-indazol-5-yl)-3-methyl-2-(3-methylpiperazin-1-yl)-3,7-dihydro-4H-pyrrolo[2,3-d]pyrimidin-4-one]
2 | 4 | CCn1cc2c(Cl)c(-c3c[nH]c4nc(N5C[C@H]6CC[C@@H]5[C@@H]6N)n(C)c(=O)c34)ccc2n1 (stereo in doubt) [Example 155, rel-2-((1R,4R,7R)-7-amino-2-azabicyclo[2.2.1]heptan-2-yl)-5-(4-chloro-2-ethyl-2H-indazol-5-yl)-3-methyl-3,7-dihydro-4H-pyrrolo[2,3-d]pyrimidin-4-one]
3 | 78 | Cn1cc2c(Cl)c(-c3c[nH]c4nc(N5CCC6(CCN6)CC5)n(C)c(=O)c34)ccc2n1 [Example 42, 5-(4-chloro-2-methyl-2H-indazol-5-yl)-3-methyl-2-(1,7-diazaspiro[3.5]nonan-7-yl)-3,7-dihydro-4H-pyrrolo[2,3-d]pyrimidin-4-one]
4 | 290 | Cn1cc2c(Cl)c(-c3n[nH]c4nc(N5[C@@H]6CC[C@H]5[C@H](F)[C@@H](N)C6)n(C)c(=O)c34)ccc2n1 [Example 149, 6-[(1S,2R,3S,5R)-3-Amino-2-fluoro-8-azabicyclo[3.2.1]octan-8-yl]-3-(4-chloro-2-methyl-2H-indazol-5-yl)-5-methyl-1H,4H,5H-pyrazolo[3,4-d]pyrimidin-4-one]
5 | 350 | Cn1cc2c(Cl)c(-c3c[nH]c4nc(N5CCN[C@H](CO)C5)n(C)c(=O)c34)ccc2n1 [Example 19, (S)-5-(4-chloro-2-methyl-2H-indazol-5-yl)-2-(3-(hydroxymethyl)piperazin-1-yl)-3-methyl-3,7-dihydro-4H-pyrrolo[2,3-d]pyrimidin-4-one]
6 | 760 | Cn1cc2c(Cl)c(-c3c[nH]c4nc(N5CCN[C@H](CCO)C5)n(C)c(=O)c34)ccc2n1 [Example 20, (R)-5-(4-chloro-2-methyl-2H-indazol-5-yl)-2-(3-(2-hydroxyethyl)piperazin-1-yl)-3-methyl-3,7-dihydro-4H-pyrrolo[2,3-d]pyrimidin-4-one]

Row | SMILES | IC50 [nM]
7 | Cn1cc2c(Cl)c(-c3n[nH]c4nc(N5CC6COCC(C5)N6)n(C)c(=O)c34)ccc2n1 [Example 145, 3-(4-chloro-2-methyl-2H-indazol-5-yl)-5-methyl-6-{3-oxa-7,9-diazabicyclo[3.3.1]nonan-7-yl}-1H,4H,5H-pyrazolo[3,4-d]pyrimidin-4-one] | 150

same assay, conditions: Table 20

Row | SMILES | IC50 [nM]
8 | CCn1cc2cc(-c3c[nH]c4nc(N5CCC6(CC5)COC[C@H]6N)n(C)c(=O)c34)cc(F)c2n1 [Example 186, 2-[(4S)-4-amino-2-oxa-8-azaspiro[4.5]decan-8-yl]-5-(2-ethyl-7-fluoro-2H-indazol-5-yl)-3-methyl-3H,4H,7H-pyrrolo[2,3-d]pyrimidin-4-one hydrochloride] | 36
9 | CCn1cc2ccc(-c3c[nH]c4nc(N5CCC6(CC5)COC[C@H]6N)n(C)c(=O)c34)cc2n1 [Example 183, 2-[(4S)-4-amino-2-oxa-8-azaspiro[4.5]decan-8-yl]-5-(2-ethyl-2H-indazol-6-yl)-3-methyl-3H,4H,7H-pyrrolo[2,3-d]pyrimidin-4-one hydrochloride] | 140
10 | Cn1cc2c(Cl)c(-c3c[nH]c4nc(N5[C@@H]6CC[C@H]5C[C@](N)(C(F)F)C6)n(C)c(=O)c34)ccc2n1 [Example 185, 2-[(endo)-3-amino-3-(difluoromethyl)-8-azabicyclo[3.2.1]octan-8-yl]-5-(4-chloro-2-methyl-2H-indazol-5-yl)-3-methyl-3H,4H,7H-pyrrolo[2,3-d]pyrimidin-4-one hydrochloride] | 180
11 | Cn1nc2c(Cl)cc(-c3c[nH]c4nc(N5[C@H]6CC[C@@H]5[C@@H](N)C6)n(C)c(=O)c34)c(Cl)c2c1Cl [Example 168, 2-((1R,2S,4S)-2-amino-7-azabicyclo[2.2.1]heptan-7-yl)-3-methyl-5-(3,4,7-trichloro-2-methyl-2H-indazol-5-yl)-3,7-dihydro-4H-pyrrolo[2,3-d]pyrimidin-4-one] | 7
12 | Cn1nc2ccc(-c3c[nH]c4nc(N5[C@H]6CC[C@@H]5[C@@H](N)C6)n(C)c(=O)c34)c(Cl)c2c1Cl [Example 166, 2-((1R,2S,4S)-2-amino-7-azabicyclo[2.2.1]heptan-7-yl)-5-(3,4-dichloro-2-methyl-2H-indazol-5-yl)-3-methyl-3,7-dihydro-4H-pyrrolo[2,3-d]pyrimidin-4-one] | 53
13 | CCn1cc2c(Cl)c(-c3c[nH]c4nc(N5CCC6(CNC6)C5)n(C)c(=O)c34)ccc2n1 (racemic) [Example 196, rac-5-(4-chloro-2-ethyl-2H-indazol-5-yl)-2-{2,6-diazaspiro[3.4]octan-6-yl}-3-methyl-3H,4H,7H-pyrrolo[2,3-d]pyrimidin-4-one] | 32
14 | CCn1cc2c(Cl)c(-c3c[nH]c4nc(N5CC6CNCC5C6)n(C)c(=O)c34)ccc2n1 (single isomer, unassigned) [Example 193, 5-(4-chloro-2-ethyl-2H-indazol-5-yl)-2-{3,6-diazabicyclo[3.2.1]octan-6-yl}-3-methyl-3H,4H,7H-pyrrolo[2,3-d]pyrimidin-4-one hydrochloride] | 260
15 | Cn1nc2ccc(-c3c[nH]c4nc(N5[C@H]6CC[C@@H]5[C@H](N)C6)n(C)c(=O)c34)cc2c1Cl [Example 167, 2-((1R,2R,4S)-2-amino-7-azabicyclo[2.2.1]heptan-7-yl)-5-(3-chloro-2-methyl-2H-indazol-5-yl)-3-methyl-3,7-dihydro-4H-pyrrolo[2,3-d]pyrimidin-4-one] | 13

system: pERK (phospho-p44/42 ERK) in HCC827 cells; experiment: Cellular pERK Inhibition Assay, Method A (In-Cell Western); assay type: cell-based; details: Homo sapiens, Table 19, head prints unit as "-M", read-out: pERK (IC50) Method A
Method: Cellular pERK Inhibition Assay
pERK levels were determined using the In-Cell Western assay. HCC827 cells (ATCC, Manassas, USA) were seeded into 384-well plates at a density of 1×10^4 cells/well in RPMI1640 medium supplemented with 10% FBS and incubated 24h. Compounds were diluted first in DMSO and then into serum-free medium, before being added to cells in quadruplicate to give a final concentration of 0.2% DMSO. Plates were incubated at 37° C. for the indicated time in a humidified atmosphere of 5% CO2 in air.
Following compound treatment, cells were fixed with formalin neutral buffer solution for 20 minutes at room temperature. Plates were washed three times with 0.1% Triton-X in PBS and cells were blocked for 1 hour with Odyssey blocking buffer (LI-COR, #927-40000). After shaking out blocking buffer, cells were incubated with phospho-p44/42 ERK antibody (Cell Signalling Technology, #4370, 1:200) diluted in Odyssey blocking buffer at 4° C. overnight. Plates were washed again and cells were incubated for 1 hour with Goat anti-Rabbit […] (LI-COR, #926-32211, 1:800) diluted in Odyssey blocking buffer. After washing and removing wash solution completely using a centrifuge machine, cells were scanned on the Odyssey (LI-COR), following the manufacturer's instructions. The average signal from blank wells (no cells added) was subtracted from the signals from each sample well. Levels of pERK were then expressed as percent of control, using DMSO treated samples as control. The relative IC50 values were calculated in quadruplicate from the normalized dose-response plots using four parameter logistic curve fit. The Experiment for each compound was carried out in one time or multiple times, and the IC50 values were shown as a single value (for a compound measured in a single experiment) or an average value (for a compound measured in multiple experiments).

Row | SMILES | IC50 [µM]
16 | CCn1cc2c(Cl)c(-c3c[nH]c4nc(N5[C@H]6CC[C@@H]5[C@H](N)C6)n(C)c(=O)c34)ccc2n1 [Example 92, 2-((1R,2R,4S)-2-amino-7-azabicyclo[2.2.1]heptan-7-yl)-5-(4-chloro-2-ethyl-2H-indazol-5-yl)-3-methyl-3,7-dihydro-4H-pyrrolo[2,3-d]pyrimidin-4-one] | 0.032
17 | Cn1nc2ccc(-c3c[nH]c4nc(N5[C@H]6CC[C@@H]5[C@H](N)C6)n(C)c(=O)c34)c(Cl)c2c1Cl [Example 93, 2-((1R,2R,4S)-2-amino-7-azabicyclo[2.2.1]heptan-7-yl)-5-(3,4-dichloro-2-methyl-2H-indazol-5-yl)-3-methyl-3,7-dihydro-4H-pyrrolo[2,3-d]pyrimidin-4-one] | 0.021
18 | Cn1c(N2[C@H]3CC[C@@H]2[C@H](N)C3)nc2[nH]cc(-c3ccc4ncsc4c3Cl)c2c1=O [Example 101, 2-((1R,2R,4S)-2-amino-7-azabicyclo[2.2.1]heptan-7-yl)-5-(7-chlorobenzo[d]thiazol-6-yl)-3-methyl-3,7-dihydro-4H-pyrrolo[2,3-d]pyrimidin-4-one] | 0.046
19 | CCn1cc2c(Cl)c(-c3c[nH]c4nc(N5C[C@@H]6CC[C@H]5[C@H]6N)n(C)c(=O)c34)ccc2n1 (stereo in doubt) [Example 133, rac-2-((1S,4S,7S)-7-amino-2-azabicyclo[2.2.1]heptan-2-yl)-5-(4-chloro-2-ethyl-2H-indazol-5-yl)-3-methyl-3,7-dihydro-4H-pyrrolo[2,3-d]pyrimidin-4-one] | 0.046
20 | Cn1nc2ccc(-c3c[nH]c4nc(N5[C@H]6CC[C@@H]5[C@H](N)C6)n(C)c(=O)c34)c(F)c2c1Cl [Example 96, 2-((1R,2R,4S)-2-amino-7-azabicyclo[2.2.1]heptan-7-yl)-5-(3-chloro-4-fluoro-2-methyl-2H-indazol-5-yl)-3-methyl-3,7-dihydro-4H-pyrrolo[2,3-d]pyrimidin-4-one] | 0.03

same assay, conditions: Homo sapiens, Table 20, read-out: pERK (IC50, μM) Method A

Row | IC50 [µM] | SMILES
21 | 0.02 | Cn1nc2ccc(-c3n[nH]c4nc(N5C[C@H]6CC[C@@H]5[C@@H]6N)n(C)c(=O)c34)c(Cl)c2c1Cl [Example 171, 6-((1R,4R,7R)-7-amino-2-azabicyclo[2.2.1]heptan-2-yl)-3-(3,4-dichloro-2-methyl-2H-indazol-5-yl)-5-methyl-1,5-dihydro-4H-pyrazolo[3,4-d]pyrimidin-4-one]
